Experiments:
[1] = system: cleaved caspase-3 and cleaved caspase-9; assay: Western immunoblot analysis of cleaved caspases in HCT116 cells; format: cell-based, human; details: HCT116 cells with ectopic expression of miR-129
Experimental: (§1) HCT116, RKO and SW480 cells were plated in 6-well plates at 2×10^5, 1×10^5 and 1×10^5 per well, respectively. Twenty-four hours after plating, 100 nM of miR-129 precursor (Ambion, Carlsbad, Calif., USA) or siRNA against BCL2 (Dharmacon, Lafayette, Colo., USA) were transfected to the cells with oligofectamine (Invitrogen, Carlsbad, Calif., USA) in accordance with the manufacturer's protocol. Negative miRNA (Ambion) was also transfected as a negative control.
(§2) Forty-eight hours after transfection, cells were lysed with RIPA buffer (Sigma-Aldrich), and Western immunoblotting was performed using standard procedures. The primary antibodies used for the analysis were mouse anti-human BCL2 antibody (1:200; Thermo Fisher Scientific, Fremont, Calif., USA), rabbit anti-human cleaved caspase-3 antibody (1:200; Cell Signaling Technology, Beverly, Mass., USA), rabbit anti-human cleaved caspase-9 antibody (1:200; Cell Signaling Technology), mouse anti-human E2F3 antibody (1:5000; Millipore, Billerica, Mass., USA), mouse anti-human TS antibody (1:400; Millipore), mouse anti-human GAPDH antibody (1:1000, Santa Cruz Biotechnology, Santa Cruz, Calif., USA) or mouse anti-human α-tubulin antibody (1:1000; Millipore). […] HRP activity was detected with SuperSignal West Pico Chemiluminescent Substrate (Thermo Fisher Scientific) and visualized in an UVP Bioimaging system.

HCT116 cells [2] = assay: Cell proliferation assay (WST-1), HCT116; format: cell-based, human; details: day 5
Experimental: as §1
Twenty-four hours after transfection, cells were seeded in 96-well plates at a density of 2000 cells per well. The cell proliferation assay was performed on days 1, 3 and 5 by incubating 10 μl WST-1 (Roche Applied Science, Mannheim, Germany) in the culture medium for 1 h and reading the absorbance at 450 and 630 nm. The cell proliferation rate was calculated by […]. Experiments for the cell proliferation assay were performed at least three times.

TS = assay: Western immunoblot analysis of TS protein in HCT116 cells; format: cell-based, human; details: HCT116 cells with ectopic expression of miR-129
Experimental: as §1, §2

HCT116 cells [3] = assay: Colorectal cancer xenografts (HCT116) in NOD/SCID mice, tumor volume; format: in vivo; details: day 24
Experimental: When solid and palpable tumors with an average volume of 100-150 mm^3 were formed (at day 14), mice were randomly separated into four groups such that each group was treated either with negative control miRNA, miR-129 alone, 5-FU alone or miR-129 and 5-FU together. The miRNAs were complexed with siPORTamine and injected intratumorally while 5-FU (50 μg g^−1) was injected systemically via the tail vein. All injections were provided in 3-day intervals for a total of three times before the tumors were collected at day 24. […] Importantly, despite the overexpression, the expression levels of miR-129 copy number remained within the physiological range (less than 20 copies/cell based on cycle threshold value at 30, which is equal to the expression of miR-129 in normal colon mucosa). Moreover, the control tumor xenografts had no miR-129 expression (cycle threshold value at 35).
Ten-twelve week old NOD/SCID mice (Jackson Laboratories, Bar Harbor, […]., USA) were used for tumor implantation. All animal procedures were approved by the Stony Brook University Institutional Animal Care and Use Committee (IACUC). The tumor implantation and miRNA injection protocol was modified from Trang et al. (see Trang P., et al., Oncogene. (2010) 29(11):1580-7). The mice were anesthetized by isoflurane inhalation. HCT116 cells were subcutaneously injected into the lower back areas of the mice using 2.5×10^6 cells in 100 μl McCoy's 5A with 50% matrigel (BD Biosciences). The tumor size was measured using a caliper and tumor volume was calculated using the formula V=length×width^2/2. When tumor volumes reach 100-150 mm^3 at day 14 post-injection, the mice were randomly assigned into four groups. For the first two groups, 10 μM negative miRNA or miR-129 precursor (Ambion) complexed with 1.6 μl siPORTAmine (Ambion) in 50 μl McCoy's 5A was injected into the tumors every three days. For the third group, 5-FU (Sigma-Aldrich) was injected at 50 μg/g via the tail vein every three days. Finally, for the last group, both miR-129 precursor and 5-FU were injected as described above. The mice were euthanized on day 24 post-injection by CO2 inhalation, and tumors were dissected out for RNA isolation.

miR-129: nucleic acid having a sequence of CUUUUUGCGGUCUGGGCUUGC (SEQ ID NO. 1); miR-129 precursor from Ambion used (chemistry not given here; listed as Homo sapiens)
protein levels of cleaved caspase-9 and cleaved caspase-3 [1]: elevated the protein levels
cell proliferation reduced compared to negative controls (HCT116 cells [2]): 41.2%
TS protein expression (TS): suppressed the protein expression of TS
inhibition of tumor growth (in words) (HCT116 cells [3]; HCT116 xenograft, compared with negative miRNA or single agents): sufficiently reduced tumor size
average tumor volume, % of the control group (HCT116 cells [3]; treated days 14, 17, 20, miRNA intratumoral with siPORTamine, 5-FU 50 μg/g tail vein, control negative miRNA): ~84.4%

Source: patent publication US10697020B2, “MicroRNA-129 as a biomarker for colorectal cancer” (THE RESEARCH FOUNDATION FOR THE STATE UNIVERSITY OF NEW YORK, priority 2013, dated 2020)
